Results on eight compounds are retold here after patent US9277697B2, “Compositions and methods for anti-transpiration in plants” (Innovation Hammer, LLC, priority 2004, dated 2016).

For one test, the system named is pectic cell. As to the kind of experiment: Penetration and integration of saccharides.
In another test the test system is Rice, Lantana, Cabbage. In words: Yield with iron-Mac formulations versus component controls, all plant types. It is filed as in vivo. Particulars: for all plant types; 12 ppm Fe—Na2EDTA, 50 mM (NH4)2SO4. On the procedure:
(§1) Dilute the mixture in an appropriate volume of water. Mix until the compounds are dissolved. Spray the resulting formulation on the plant foliage (e.g. New Guinea Impatiens) so that the foliage glistens. Allow a day for leaf uptake. The following results are of growth promotion using iron-Mac formulations of the invention versus conventionally cultured controls and with identical quantities of each of the components as separate controls.

The subject of the next test is Lantana. In words: Growth promotion with iron-Mac formulations versus component controls. Type of test: in vivo. Particulars: 12 ppm iron-Mac, 12 ppm Fe—Na2EDTA, 50 mM (NH4)2SO4. On the procedure: as §1
Another test relates to Rice. Described as above. Particulars: 12 ppm iron-Mac, 12 ppm Fe—Na2EDTA, 50 mM (NH4)2SO4. Type of test: in vivo. As to the method:
as §1

For another test, the system named is Cabbage. The test is described as above. Type of test: in vivo. Particulars: 12 ppm iron-Mac, 12 ppm Fe—Na2EDTA, 50 mM (NH4)2SO4. On the procedure: as §1
Another test concerns weeds. As to the kind of experiment: Weed kill by tank-mixes of saccharides, herbicide and ammonium sulfate. Type of test: in vivo. Particulars: 1 lb/acre glyphosate; additive 1:1 methyl glucosides to organic ammonium sulfates. From the text: The inherent benefit of the reduction of productivity observed by surface coatings was exploited by utilizing their weakening effects as additives to enhance weed kill of pesticides. In sets of replicated trials, weeds were given tank-mixes with saccharides, herbicides, and ammonium sulfate fertilizer. Perhaps the most widely used herbicide, N-phosphonomethylglycine (PO(OH)2CH2.2NHCH2COOH), is commonly referred to as glyphosate, and is most abundantly found formulated as a water-soluble mono-isopropylamine (IPA) salt or sodium salt, hereinafter referred to as glyphosate, meant to include salts, thereof. The preferred formulation of the present invention is a blend of 4 lbs./acre to 5 lbs./acre glyphosate; 10 lbs./acre to 100 lbs./acre of 60% to 100% methyl glucosides in a 1:1 to 3:1 blend with ammonium sulfate; and with optional surfactant. After foliar application, inhibitory methods yielded approximately 50% to 85% improved response of weeds to herbicide and additives over positive controls. […] An additional benefit is the reversal of the weakening effect of treatments to plants that have been genetically engineered for herbicide resistance. After treatment with a tank mix of herbicide and Series 1 components, a Series 2 formulation of Ca^2+-chelators may be sprayed over a Series 1 treatment once the herbicide has killed its targeted weeds. […]

As for `CCCCCCCCCCCCCCO[C@@H]1O[C@H](CO)[C@@H](O[C@@H]2O[C@@H](CO)[C@H](O)[C@@H](O)[C@@H]2O)[C@H](O)[C@H]1O` (stereo in doubt) [tetradecylmaltoside], the penetration and integration entry with pectic cell is “neither penetrate nor integrate”.
The compound `N.N.O=S(=O)(O)O` [(NH4)2SO4] had a yield reduction with Rice, Lantana, Cabbage of 5% reduction. Further, the “Result (growth promotion)” value in the test on Lantana, in the test with Rice and in the test on Cabbage was “retarded” in each case.
For `O=C(O)CNCP(=O)(O)O` [glyphosate, N-phosphonomethylglycine], the lethal dose response in the test with weeds was found to be 100%.
With `CC(=O)OC[C@H]1OC(OC(C)=O)[C@H](OC(C)=O)[C@@H](OC(C)=O)[C@H]1OC(C)=O` (some centres unmarked) [pentaace tylgalactopyranose], in the test on pectic cell, the penetration and integration entry is listed as “neither penetrate nor integrate”.
As for `CC(=O)OC[C@H]1OC(OC(C)=O)[C@H](OC(C)=O)[C@@H](OC(C)=O)[C@@H]1OC(C)=O` (some centres unmarked) [pentaace tylglucopyranose], the penetration and integration result in the test with pectic cell was “neither penetrate nor integrate”.
As for `CC(=O)OC[C@H]1OC(OC(C)=O)[C@@H](OC(C)=O)[C@@H](OC(C)=O)[C@@H]1OC(C)=O` (some centres unmarked) [pentaacetylmanno-pyranose], in the test with pectic cell, the penetration and integration result is “neither penetrate nor integrate”.
For `CC(=O)OC[C@H]1OC(Oc2ccccc2)[C@H](OC(C)=O)[C@@H](OC(C)=O)[C@@H]1OC(C)=O` (some centres unmarked) [phenyltetraacetylglucoside], the penetration and integration result in the test on pectic cell is “neither penetrate nor integrate”.
Consider Fe—Na2EDTA, for which the yield reduction in the test on Rice, Lantana, Cabbage came to 5% reduction. Further, the “Result (growth promotion)” value in the test on Lantana, in the test on Rice and in the test on Cabbage was “phytotoxic” in each case.
